Laboratory results reported in PubChem BioAssay AID2060896 (Molecular Pharmacology Branch, DTP, NCI, 2025).

System: 941728-121-R-J1-PDC complex spheroid viability
Experiment: Anticancer human tumor 941728-121-R-J1-PDC patient-derived lung adenocarcinoma cell line growth inhibition [RAS]
Conditions: for viability, T/C: stronger effect = lower value
Method in brief: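 Agents were tested in combination matrices in half-log decrements from a top concentration at or near clinical Cmax (10 microM if undetermined). Targets were multi-cell spheroids of tumour lines plus HUVEC and MSC stromal cells.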

[1] = curve of first compound, second compound 0.000949 µM
[2] = curve of first compound, second compound 0.003 µM
[3] = curve of first compound, second compound 0.00949 µM
[4] = curve of first compound, second compound 0.03 µM
[5] = curve of first compound, second compound 0.0949 µM
[6] = curve of first compound, second compound 0.3 µM
[7] = second compound 0.000949 µM, first compound 0.0316 µM
[8] = second compound 0.000949 µM, first compound 0.1 µM
[9] = second compound 0.000949 µM, first compound 0.316 µM
[10] = second compound 0.000949 µM, first compound 1 µM
[11] = second compound 0.000949 µM, first compound 3.16 µM
[12] = second compound 0.000949 µM, first compound 10 µM
[13] = second compound 0.003 µM, first compound 0.0316 µM
[14] = second compound 0.003 µM, first compound 0.1 µM
[15] = second compound 0.003 µM, first compound 0.316 µM
[16] = second compound 0.003 µM, first compound 1 µM
[17] = second compound 0.003 µM, first compound 3.16 µM
[18] = second compound 0.003 µM, first compound 10 µM
[19] = second compound 0.00949 µM, first compound 0.0316 µM
[20] = second compound 0.00949 µM, first compound 0.1 µM
[21] = second compound 0.00949 µM, first compound 0.316 µM
[22] = second compound 0.00949 µM, first compound 1 µM
[23] = second compound 0.00949 µM, first compound 3.16 µM
[24] = second compound 0.00949 µM, first compound 10 µM
[25] = second compound 0.03 µM, first compound 0.0316 µM
[26] = second compound 0.03 µM, first compound 0.1 µM
[27] = second compound 0.03 µM, first compound 0.316 µM
[28] = second compound 0.03 µM, first compound 1 µM
[29] = second compound 0.03 µM, first compound 3.16 µM
[30] = second compound 0.03 µM, first compound 10 µM
[31] = second compound 0.0949 µM, first compound 0.0316 µM
[32] = second compound 0.0949 µM, first compound 0.1 µM
[33] = second compound 0.0949 µM, first compound 0.316 µM
[34] = second compound 0.0949 µM, first compound 1 µM
[35] = second compound 0.0949 µM, first compound 3.16 µM
[36] = second compound 0.0949 µM, first compound 10 µM
[37] = second compound 0.3 µM, first compound 0.0316 µM
[38] = second compound 0.3 µM, first compound 0.1 µM
[39] = second compound 0.3 µM, first compound 0.316 µM
[40] = second compound 0.3 µM, first compound 1 µM
[41] = second compound 0.3 µM, first compound 3.16 µM
[42] = second compound 0.3 µM, first compound 10 µM
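Further: spheroids exposed to compounds for 7 days before readout.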
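Wherever viability, T/C is given: 100% = DMSO vehicle control viability.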

CC1(O)CCCC1n1c(=O)c(C(F)F)cc2cnc(NC3CCN(S(C)(=O)=O)CC3)nc21 (stereo not given) + CCn1c(-c2cc(N3CCN(C)CC3)cnc2C(C)OC)c2c3cc(ccc31)-c1csc(n1)CC(NC(=O)C1CC1C)C(=O)N1CCCC(N1)C(=O)OCC(C)(C)C2
IC50 [1]: < 31.6 nM
IC50 [2]: < 31.6 nM
IC50 [3]: < 31.6 nM
IC50 [4]: < 31.6 nM
IC50 [5]: < 31.6 nM
IC50 [6]: < 31.6 nM
viability, T/C [7]: 28.6%
viability, T/C [8]: 30.3%
viability, T/C [9]: 24.8%
viability, T/C [10]: 38.3%
viability, T/C [11]: 34.9%
viability, T/C [12]: 31.3%
viability, T/C [13]: 24.4%
viability, T/C [14]: 20.1%
viability, T/C [15]: 18.4%
viability, T/C [16]: 22.3%
viability, T/C [17]: 23.3%
viability, T/C [18]: 26.9%
viability, T/C [19]: 16.5%
viability, T/C [20]: 13.6%
viability, T/C [21]: 15.9%
viability, T/C [22]: 17.5%
viability, T/C [23]: 15.6%
viability, T/C [24]: 28.4%
viability, T/C [25]: 13.4%
viability, T/C [26]: 12.6%
viability, T/C [27]: 13.5%
viability, T/C [28]: 14.4%
viability, T/C [29]: 9.96%
viability, T/C [30]: 27.3%
viability, T/C [31]: 11.1%
viability, T/C [32]: 14.5%
viability, T/C [33]: 14.3%
viability, T/C [34]: 14.8%
viability, T/C [35]: 9.56%
viability, T/C [36]: 27.7%
viability, T/C [37]: 10.4%
viability, T/C [38]: 11.6%
viability, T/C [39]: 13.3%
viability, T/C [40]: 15.2%
viability, T/C [41]: 12.2%
viability, T/C [42]: 23.8%

NC1c2ccccc2OC12CCN(c1cnc3c(N4CCCc5ncccc54)n[nH]c3n1)CC2 (stereo not given) + C#Cc1c(F)ccc2cc(O)cc(-c3ncc4c(N5CC6CCC(C5)N6)nc(OCC56CCCN5CC(F)C6)nc4c3F)c12
IC50 (curve of first compound, second compound 0.0316 µM): < 31.6 nM
IC50 (curve of first compound, second compound 0.1 µM): < 31.6 nM
IC50 (curve of first compound, second compound 0.316 µM): < 31.6 nM
IC50 (curve of first compound, second compound 1 µM): < 31.6 nM
IC50 (curve of first compound, second compound 3.16 µM): < 31.6 nM
IC50 (curve of first compound, second compound 10 µM): < 31.6 nM
viability, T/C (second compound 0.0316 µM, first compound 0.0316 µM): 37.8%
viability, T/C (second compound 0.0316 µM, first compound 0.1 µM): 34.7%
viability, T/C (second compound 0.0316 µM, first compound 0.316 µM): 30.6%
viability, T/C (second compound 0.0316 µM, first compound 1 µM): 35.9%
viability, T/C (second compound 0.0316 µM, first compound 3.16 µM): 35.5%
viability, T/C (second compound 0.0316 µM, first compound 10 µM): 43%
viability, T/C (second compound 0.1 µM, first compound 0.0316 µM): 34.8%
viability, T/C (second compound 0.1 µM, first compound 0.1 µM): 33%
viability, T/C (second compound 0.1 µM, first compound 0.316 µM): 31.6%
viability, T/C (second compound 0.1 µM, first compound 1 µM): 35.6%
viability, T/C (second compound 0.1 µM, first compound 3.16 µM): 34.2%
viability, T/C (second compound 0.1 µM, first compound 10 µM): 36.5%
viability, T/C (second compound 0.316 µM, first compound 0.0316 µM): 30.3%
viability, T/C (second compound 0.316 µM, first compound 0.1 µM): 30.8%
viability, T/C (second compound 0.316 µM, first compound 0.316 µM): 32.8%
viability, T/C (second compound 0.316 µM, first compound 1 µM): 29.8%
viability, T/C (second compound 0.316 µM, first compound 3.16 µM): 32%
viability, T/C (second compound 0.316 µM, first compound 10 µM): 37%
viability, T/C (second compound 1 µM, first compound 0.0316 µM): 28.5%
viability, T/C (second compound 1 µM, first compound 0.1 µM): 27.6%
viability, T/C (second compound 1 µM, first compound 0.316 µM): 31.4%
viability, T/C (second compound 1 µM, first compound 1 µM): 29.4%
viability, T/C (second compound 1 µM, first compound 3.16 µM): 28.8%
viability, T/C (second compound 1 µM, first compound 10 µM): 29.7%
viability, T/C (second compound 3.16 µM, first compound 0.0316 µM): 24.1%
viability, T/C (second compound 3.16 µM, first compound 0.1 µM): 24%
viability, T/C (second compound 3.16 µM, first compound 0.316 µM): 24.4%
viability, T/C (second compound 3.16 µM, first compound 1 µM): 24.6%
viability, T/C (second compound 3.16 µM, first compound 3.16 µM): 23.4%
viability, T/C (second compound 3.16 µM, first compound 10 µM): 24.6%
viability, T/C (second compound 10 µM, first compound 0.0316 µM): 20.9%
viability, T/C (second compound 10 µM, first compound 0.1 µM): 18.3%
viability, T/C (second compound 10 µM, first compound 0.316 µM): 19.3%
viability, T/C (second compound 10 µM, first compound 1 µM): 18.8%
viability, T/C (second compound 10 µM, first compound 3.16 µM): 17.8%
viability, T/C (second compound 10 µM, first compound 10 µM): 18.4%

C[C@@H](NC(=O)c1ncnc(N)c1Cl)c1ncc(C(=O)Nc2cc(C(F)(F)F)c(Cl)cn2)s1 + CCn1c(-c2cccnc2C(C)OC)c2c3cc(ccc31)N1CCOC(CC(NC(=O)C(C(C)C)N(C)C(=O)C3(F)CCN(C(=O)C#CC(C)(C)N(C)C)CC3)C(=O)N3CCCC(N3)C(=O)OCC(C)(C)C2)C1
IC50 [1]: < 31.6 nM
IC50 [2]: < 31.6 nM
IC50 [3]: < 31.6 nM
IC50 [4]: < 31.6 nM
IC50 [5]: < 31.6 nM
IC50 [6]: < 31.6 nM
viability, T/C [7]: 25.9%
viability, T/C [8]: 26.5%
viability, T/C [9]: 20.4%
viability, T/C [10]: 26.4%
viability, T/C [11]: 24.6%
viability, T/C [12]: 16.7%
viability, T/C [13]: 21.6%
viability, T/C [14]: 20.3%
viability, T/C [15]: 19.4%
viability, T/C [16]: 23.7%
viability, T/C [17]: 23.5%
viability, T/C [18]: 17.9%
viability, T/C [19]: 22.9%
viability, T/C [20]: 19.8%
viability, T/C [21]: 24.6%
viability, T/C [22]: 22.4%
viability, T/C [23]: 21%
viability, T/C [24]: 19.9%
viability, T/C [25]: 23.9%
viability, T/C [26]: 20.6%
viability, T/C [27]: 26.3%
viability, T/C [28]: 23.1%
viability, T/C [29]: 17.4%
viability, T/C [30]: 21.6%
viability, T/C [31]: 21.7%
viability, T/C [32]: 24%
viability, T/C [33]: 22.6%
viability, T/C [34]: 24.4%
viability, T/C [35]: 21.2%
viability, T/C [36]: 22.2%
viability, T/C [37]: 22.6%
viability, T/C [38]: 26%
viability, T/C [39]: 23.2%
viability, T/C [40]: 25.1%
viability, T/C [41]: 21.9%
viability, T/C [42]: 20.1%

NC1c2ccccc2OC12CCN(c1cnc3c(N4CCCc5ncccc54)n[nH]c3n1)CC2 (stereo not given)
viability, T/C (compound 0.0316 µM): 48.2% [middle of 4 runs]
viability, T/C (compound 0.1 µM): 44.8% [middle of 4 runs]
viability, T/C (compound 0.316 µM): 36% [middle of 4 runs]
viability, T/C (compound 1 µM): 47.1% [middle of 4 runs]
viability, T/C (compound 3.16 µM): 41.8% [middle of 4 runs]
viability, T/C (compound 10 µM): 49% [middle of 4 runs]
IC50 (curve of compound): < 31.6 nM

CC1(O)CCCC1n1c(=O)c(C(F)F)cc2cnc(NC3CCN(S(C)(=O)=O)CC3)nc21 (stereo not given) + CCn1c(-c2cccnc2C(C)OC)c2c3cc(ccc31)N1CCOC(CC(NC(=O)C(C(C)C)N(C)C(=O)C3(F)CCN(C(=O)C#CC(C)(C)N(C)C)CC3)C(=O)N3CCCC(N3)C(=O)OCC(C)(C)C2)C1
IC50 [1]: < 31.6 nM
IC50 [2]: < 31.6 nM
IC50 [3]: < 31.6 nM
IC50 [4]: < 31.6 nM
IC50 [5]: < 31.6 nM
IC50 [6]: < 31.6 nM
viability, T/C [7]: 22.3%
viability, T/C [8]: 23.9%
viability, T/C [9]: 24.1%
viability, T/C [10]: 24.3%
viability, T/C [11]: 26%
viability, T/C [12]: 29.7%
viability, T/C [13]: 24%
viability, T/C [14]: 20.8%
viability, T/C [15]: 24.2%
viability, T/C [16]: 25.1%
viability, T/C [17]: 24.6%
viability, T/C [18]: 30.1%
viability, T/C [19]: 21.4%
viability, T/C [20]: 26.1%
viability, T/C [21]: 21.9%
viability, T/C [22]: 24.4%
viability, T/C [23]: 22.6%
viability, T/C [24]: 30.1%
viability, T/C [25]: 23.1%
viability, T/C [26]: 23%
viability, T/C [27]: 23.6%
viability, T/C [28]: 27.4%
viability, T/C [29]: 20.1%
viability, T/C [30]: 31%
viability, T/C [31]: 21.5%
viability, T/C [32]: 22.3%
viability, T/C [33]: 26.5%
viability, T/C [34]: 27.9%
viability, T/C [35]: 17.9%
viability, T/C [36]: 28.8%
viability, T/C [37]: 22.5%
viability, T/C [38]: 23.4%
viability, T/C [39]: 23%
viability, T/C [40]: 26.1%
viability, T/C [41]: 20.8%
viability, T/C [42]: 25.9%
